How the values were obtained:
Type in all cases: in vivo
[1] = test system: Johnsongrass (Sorghum halepense); experiment: Preemergence herbicidal activity, johnsongrass; conditions: Rate of Application 0.3 Kg/Ha, examined after 12-17 days
[2] = test system: soybean (Glycine max var. Winchester); experiment: Postemergence herbicidal activity, soybean; conditions: rate of application 0.3 Kg/Ha, rated after 12-17 days
[3] = test system: field corn (Zea mays var. Pioneer 3732); experiment: Preemergence herbicidal activity, corn; conditions: Rate of Application 0.3 Kg/Ha, examined after 12-17 days
[4] = test system: common chickweed (Stellaria media); experiment: Preemergence herbicidal activity, chickweed; conditions: Rate of Application 0.3 Kg/Ha, examined after 12-17 days
[5] = test system: morningglory (Ipomea lacunosa or Ipomea hederacea); experiment: Postemergence herbicidal activity, morningglory; conditions: rate of application 0.3 Kg/Ha, rated after 12-17 days
[6] = test system: soybean (Glycine max var. Winchester); experiment: Preemergence herbicidal activity, soybean; conditions: Rate of Application 0.3 Kg/Ha, examined after 12-17 days
[7] = test system: morningglory (Ipomea lacunosa or Ipomea hederacea); experiment: Preemergence herbicidal activity, morningglory; conditions: Rate of Application 0.3 Kg/Ha, examined after 12-17 days
[8] = test system: common chickweed (Stellaria media); experiment: Postemergence herbicidal activity, chickweed; conditions: rate of application 0.3 Kg/Ha, rated after 12-17 days
[9] = test system: Johnsongrass (Sorghum halepense); experiment: Postemergence herbicidal activity, johnsongrass; conditions: rate of application 0.3 Kg/Ha, rated after 12-17 days
[10] = test system: velvetleaf (Abutilon theophrasti); experiment: Postemergence herbicidal activity, velvetleaf; conditions: rate of application 0.3 Kg/Ha, rated after 12-17 days
[11] = test system: velvetleaf (Abutilon theophrasti); experiment: Preemergence herbicidal activity, velvetleaf; conditions: Rate of Application 0.3 Kg/Ha, examined after 12-17 days
[12] = test system: green foxtail (Setaria viridis); experiment: Preemergence herbicidal activity, green foxtail; conditions: Rate of Application 0.3 Kg/Ha, examined after 12-17 days
[13] = test system: blackgrass (Aloepecurus myosuroides); experiment: Postemergence herbicidal activity, blackgrass; conditions: rate of application 0.3 Kg/Ha, rated after 12-17 days
[14] = test system: common cocklebur (Xanthium strumarium L.); experiment: Postemergence herbicidal activity, cocklebur; conditions: rate of application 0.3 Kg/Ha, rated after 12-17 days
[15] = test system: wheat (Triticum aestivum var. Lew); experiment: Preemergence herbicidal activity, wheat; conditions: Rate of Application 0.3 Kg/Ha, examined after 12-17 days
[16] = test system: field corn (Zea mays var. Pioneer 3732); experiment: Postemergence herbicidal activity, corn; conditions: rate of application 0.3 Kg/Ha, rated after 12-17 days
[17] = test system: wheat (Triticum aestivum var. Lew); experiment: Postemergence herbicidal activity, wheat; conditions: rate of application 0.3 Kg/Ha, rated after 12-17 days
[18] = test system: green foxtail (Setaria viridis); experiment: Postemergence herbicidal activity, green foxtail; conditions: rate of application 0.3 Kg/Ha, rated after 12-17 days
[19] = test system: blackgrass (Aloepecurus myosuroides); experiment: Preemergence herbicidal activity, blackgrass; conditions: Rate of Application 0.3 Kg/Ha, examined after 12-17 days
[20] = test system: common cocklebur (Xanthium strumarium L.); experiment: Preemergence herbicidal activity, cocklebur; conditions: Rate of Application 0.3 Kg/Ha, examined after 12-17 days

Row | Compound | PREEMERGENCE HERBICIDAL ACTIVITY (% CONTROL) SORHA [1] [%] | Postemergence herbicidal activity (% control) SOY [2] [%] | PREEMERGENCE HERBICIDAL ACTIVITY (% CONTROL) CRN [3] [%] | PREEMERGENCE HERBICIDAL ACTIVITY (% CONTROL) STEME [4] [%] | Postemergence herbicidal activity (% control) IPOSS [5] [%] | PREEMERGENCE HERBICIDAL ACTIVITY (% CONTROL) SOY [6] [%] | PREEMERGENCE HERBICIDAL ACTIVITY (% CONTROL) IPOSS [7] [%] | Postemergence herbicidal activity (% control) SORHA [9] [%] | Postemergence herbicidal activity (% control) ABUTH [10] [%] | PREEMERGENCE HERBICIDAL ACTIVITY (% CONTROL) ABUTH [11] [%] | PREEMERGENCE HERBICIDAL ACTIVITY (% CONTROL) SETVI [12] [%] | Postemergence herbicidal activity (% control) ALOMY [13] [%] | Postemergence herbicidal activity (% control) XANPE [14] [%] | PREEMERGENCE HERBICIDAL ACTIVITY (% CONTROL) WHT [15] [%] | Postemergence herbicidal activity (% control) CRN [16] [%] | Postemergence herbicidal activity (% control) WHT [17] [%] | Postemergence herbicidal activity (% control) SETVI [18] [%] | PREEMERGENCE HERBICIDAL ACTIVITY (% CONTROL) ALOMY [19] [%] | PREEMERGENCE HERBICIDAL ACTIVITY (% CONTROL) XANPE [20] [%] | also measured
1 | Cc1cc2c(Cl)ccc(-n3c(=O)cc(C(F)(F)F)n(C)c3=O)c2o1 [Compound 221] | 95 | 95 | 85 | 80 | 100 | 70 | 100 | 70 | 100 | 100 | 100 | 40 | 60 | 60 | 60 | 50 | 70 | – | – | Postemergence herbicidal activity (% control) STEME [8]: 100%
2 | COc1nc2c(-n3c(=O)cc(C(F)(F)F)n(C)c3=O)c(F)cc(Br)c2o1 [Compound 109, 1-METHYL-6-TRIFLUOROMETHYL-3-(7-BROMO-5-FLUORO-2-METHOXYBENZOXAZOL-4-YL)-2,4(1H,3H)-PYRIMIDINEDIONE] | – | – | – | – | – | – | – | – | – | – | – | – | – | – | – | – | – | – | – | inhibition at 300 g/ha ([1]; Sorghum halepense, pre-emergence, read-out: PREEMERGENCE HERBICIDAL ACTIVITY (% CONTROL) SORHA): 100%; inhibition at 300 g/ha ([2]; Glycine max, post-emergence, read-out: Postemergence herbicidal activity (% control) SOY): 90%; inhibition at 300 g/ha ([3]; Zea mays, pre-emergence, read-out: PREEMERGENCE HERBICIDAL ACTIVITY (% CONTROL) CRN): 90%; inhibition at 300 g/ha ([4]; Stellaria media, pre-emergence, read-out: PREEMERGENCE HERBICIDAL ACTIVITY (% CONTROL) STEME): 100%; inhibition at 300 g/ha ([19]; Alopecurus myosuroides, pre-emergence, read-out: PREEMERGENCE HERBICIDAL ACTIVITY (% CONTROL) ALOMY): 100%; inhibition at 300 g/ha ([5]; Ipomoea, post-emergence, read-out: Postemergence herbicidal activity (% control) IPOSS): 100%; inhibition at 300 g/ha ([6]; Glycine max, pre-emergence, read-out: PREEMERGENCE HERBICIDAL ACTIVITY (% CONTROL) SOY): 100%; inhibition at 300 g/ha ([7]; Ipomoea, pre-emergence, read-out: PREEMERGENCE HERBICIDAL ACTIVITY (% CONTROL) IPOSS): 100%; inhibition at 300 g/ha ([9]; Sorghum halepense, post-emergence, read-out: Postemergence herbicidal activity (% control) SORHA): 90%; inhibition at 300 g/ha ([10]; Abutilon theophrasti, post-emergence, read-out: Postemergence herbicidal activity (% control) ABUTH): 100%; inhibition at 300 g/ha ([11]; Abutilon theophrasti, pre-emergence, read-out: PREEMERGENCE HERBICIDAL ACTIVITY (% CONTROL) ABUTH): 100%; inhibition at 300 g/ha ([12]; Setaria viridis, pre-emergence, read-out: PREEMERGENCE HERBICIDAL ACTIVITY (% CONTROL) SETVI): 100%; inhibition at 300 g/ha ([20]; Xanthium strumarium, pre-emergence, read-out: PREEMERGENCE HERBICIDAL ACTIVITY (% CONTROL) XANPE): 100%; inhibition at 300 g/ha ([13]; Alopecurus myosuroides, post-emergence, read-out: Postemergence herbicidal activity (% control) ALOMY): 90%; inhibition at 300 g/ha ([14]; Xanthium strumarium, post-emergence, read-out: Postemergence herbicidal activity (% control) XANPE): 100%; inhibition at 300 g/ha ([15]; Triticum aestivum, pre-emergence, read-out: PREEMERGENCE HERBICIDAL ACTIVITY (% CONTROL) WHT): 100%; inhibition at 300 g/ha ([16]; Zea mays, post-emergence, read-out: Postemergence herbicidal activity (% control) CRN): 80%; inhibition at 300 g/ha ([17]; Triticum aestivum, post-emergence, read-out: Postemergence herbicidal activity (% control) WHT): 90%; inhibition at 300 g/ha ([18]; Setaria viridis, post-emergence, read-out: Postemergence herbicidal activity (% control) SETVI): 100%
3 | CC(=O)OCCc1cc2c(Cl)cc(F)c(-n3c(=O)cc(C(F)(F)F)n(C)c3=O)c2o1 [Compound 260] | 100 | 90 | 80 | 100 | 100 | 100 | 100 | 90 | 100 | 100 | 100 | 90 | 100 | 70 | 70 | 80 | 100 | 95 | 100 | –
4 | Cn1c(C(F)(F)F)cc(=O)n(-c2c(F)cc(Cl)c3nc(Cc4ccccc4)[nH]c23)c1=O [Compound 376] | 70 | 90 | 80 | 100 | 100 | 50 | 100 | 100 | 100 | 100 | 100 | 90 | 100 | 60 | 95 | 50 | 100 | 100 | 100 | –
5 | Cc1nc2c(-n3c(=O)cc(C(F)(F)F)n(C)c3=O)c(F)cc(Cl)c2[nH]1 [Compound 363] | 100 | 100 | 100 | 100 | 100 | 100 | 100 | 100 | 100 | 100 | 100 | 100 | 100 | 100 | 100 | 100 | 100 | 100 | 100 | –
